Experimental data from ChEMBL document CHEMBL5442219.

Columns and labels:
Details in all cases: Compound concentration 10 µM
[1] = target: T1, Alpha-1A adrenergic receptor (Homo sapiens) (UniProt P35348)
T1 sequence (whole entry): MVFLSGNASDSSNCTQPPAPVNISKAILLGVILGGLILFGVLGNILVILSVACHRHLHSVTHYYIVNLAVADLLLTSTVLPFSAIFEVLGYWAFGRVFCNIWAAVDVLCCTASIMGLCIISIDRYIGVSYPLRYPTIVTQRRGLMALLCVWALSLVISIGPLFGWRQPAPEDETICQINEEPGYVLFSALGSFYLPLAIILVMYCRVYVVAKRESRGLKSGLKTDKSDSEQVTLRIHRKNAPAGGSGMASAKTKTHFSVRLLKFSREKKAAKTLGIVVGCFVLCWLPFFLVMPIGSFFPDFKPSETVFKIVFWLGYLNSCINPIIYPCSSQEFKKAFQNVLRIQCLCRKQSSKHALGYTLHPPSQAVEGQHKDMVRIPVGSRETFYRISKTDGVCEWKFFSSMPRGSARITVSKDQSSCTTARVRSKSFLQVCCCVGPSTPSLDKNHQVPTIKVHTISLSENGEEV
Description: PDSP Primary Binding target: ADRA1A - Compounds are tested at 10 uM concentration, plate are incubated at room temperature in the dark for 90 minutes. Reaction are stopped by vacuum filtration onto 0.3% polyethyleneimine soaked filter mats using Filtermate harvester. Scintilation cocktail is then melted onto microwave-dried filters on a hot plate and the radio activity is counted in Microbia counter.

[2] = target: T2, Alpha-1D adrenergic receptor (Homo sapiens) (UniProt P25100)
T2 sequence (whole entry): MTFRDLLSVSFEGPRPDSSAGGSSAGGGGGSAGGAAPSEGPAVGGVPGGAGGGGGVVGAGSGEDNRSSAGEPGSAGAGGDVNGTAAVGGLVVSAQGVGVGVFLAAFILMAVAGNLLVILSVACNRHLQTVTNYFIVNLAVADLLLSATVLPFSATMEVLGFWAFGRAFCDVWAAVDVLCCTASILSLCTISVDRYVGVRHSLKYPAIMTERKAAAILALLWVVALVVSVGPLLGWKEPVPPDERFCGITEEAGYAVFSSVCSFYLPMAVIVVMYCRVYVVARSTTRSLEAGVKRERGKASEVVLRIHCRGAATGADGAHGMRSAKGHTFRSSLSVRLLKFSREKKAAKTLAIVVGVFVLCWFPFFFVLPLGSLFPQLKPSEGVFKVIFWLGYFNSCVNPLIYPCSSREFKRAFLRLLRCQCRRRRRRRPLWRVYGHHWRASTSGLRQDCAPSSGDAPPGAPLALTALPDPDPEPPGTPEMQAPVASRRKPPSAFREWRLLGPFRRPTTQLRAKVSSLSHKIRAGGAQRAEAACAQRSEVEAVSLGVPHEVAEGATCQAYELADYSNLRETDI
Description: PDSP Primary Binding target: ADRA1D - Compounds are tested at 10 uM concentration, plate are incubated at room temperature in the dark for 90 minutes. Reaction are stopped by vacuum filtration onto 0.3% polyethyleneimine soaked filter mats using Filtermate harvester. Scintilation cocktail is then melted onto microwave-dried filters on a hot plate and the radio activity is counted in Microbia counter.

[3] = target: Muscarinic acetylcholine receptor M3 (Homo sapiens) (UniProt P20309)
Sequence of Muscarinic acetylcholine receptor M3 (Homo sapiens) (P20309 whole entry, looked up): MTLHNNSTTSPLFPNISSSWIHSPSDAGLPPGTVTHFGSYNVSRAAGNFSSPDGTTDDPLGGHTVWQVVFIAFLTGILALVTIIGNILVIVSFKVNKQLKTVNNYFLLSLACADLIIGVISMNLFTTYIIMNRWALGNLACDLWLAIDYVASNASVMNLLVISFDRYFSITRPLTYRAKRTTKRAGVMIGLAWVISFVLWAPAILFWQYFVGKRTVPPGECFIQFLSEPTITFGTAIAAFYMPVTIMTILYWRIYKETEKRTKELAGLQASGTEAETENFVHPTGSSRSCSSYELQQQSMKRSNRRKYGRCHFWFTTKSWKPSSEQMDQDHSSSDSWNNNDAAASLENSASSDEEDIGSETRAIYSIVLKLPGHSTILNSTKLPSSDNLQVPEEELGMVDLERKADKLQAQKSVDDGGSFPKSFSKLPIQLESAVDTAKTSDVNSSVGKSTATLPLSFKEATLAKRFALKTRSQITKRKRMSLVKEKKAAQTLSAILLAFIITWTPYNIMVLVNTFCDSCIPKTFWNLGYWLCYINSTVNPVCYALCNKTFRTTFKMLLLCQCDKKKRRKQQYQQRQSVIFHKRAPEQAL
Description: PDSP Primary Binding target: CHRM3 - Compounds are tested at 10 uM concentration, plate are incubated at room temperature in the dark for 90 minutes. Reaction are stopped by vacuum filtration onto 0.3% polyethyleneimine soaked filter mats using Filtermate harvester. Scintilation cocktail is then melted onto microwave-dried filters on a hot plate and the radio activity is counted in Microbia counter.

[4] = target: D(1A) dopamine receptor (Homo sapiens) (UniProt P21728)
Sequence of D(1A) dopamine receptor (Homo sapiens) (P21728 whole entry): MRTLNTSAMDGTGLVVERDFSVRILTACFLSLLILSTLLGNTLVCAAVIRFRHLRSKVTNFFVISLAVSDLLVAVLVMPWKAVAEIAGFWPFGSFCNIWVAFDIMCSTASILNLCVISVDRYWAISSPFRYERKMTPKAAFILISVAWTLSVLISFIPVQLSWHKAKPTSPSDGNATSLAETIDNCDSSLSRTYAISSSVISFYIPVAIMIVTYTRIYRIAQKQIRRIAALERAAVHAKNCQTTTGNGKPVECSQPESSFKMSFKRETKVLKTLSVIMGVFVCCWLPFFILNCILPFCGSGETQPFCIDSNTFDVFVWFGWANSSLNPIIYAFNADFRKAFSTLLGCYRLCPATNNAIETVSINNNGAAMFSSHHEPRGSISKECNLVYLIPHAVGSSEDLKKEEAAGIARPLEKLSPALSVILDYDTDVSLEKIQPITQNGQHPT
Description: PDSP Primary Binding target: DRD1 - Compounds are tested at 10 uM concentration, plate are incubated at room temperature in the dark for 90 minutes. Reaction are stopped by vacuum filtration onto 0.3% polyethyleneimine soaked filter mats using Filtermate harvester. Scintilation cocktail is then melted onto microwave-dried filters on a hot plate and the radio activity is counted in Microbia counter.

[5] = target: D(2) dopamine receptor (Homo sapiens) (UniProt P14416)
Sequence of D(2) dopamine receptor (Homo sapiens) (P14416 whole entry): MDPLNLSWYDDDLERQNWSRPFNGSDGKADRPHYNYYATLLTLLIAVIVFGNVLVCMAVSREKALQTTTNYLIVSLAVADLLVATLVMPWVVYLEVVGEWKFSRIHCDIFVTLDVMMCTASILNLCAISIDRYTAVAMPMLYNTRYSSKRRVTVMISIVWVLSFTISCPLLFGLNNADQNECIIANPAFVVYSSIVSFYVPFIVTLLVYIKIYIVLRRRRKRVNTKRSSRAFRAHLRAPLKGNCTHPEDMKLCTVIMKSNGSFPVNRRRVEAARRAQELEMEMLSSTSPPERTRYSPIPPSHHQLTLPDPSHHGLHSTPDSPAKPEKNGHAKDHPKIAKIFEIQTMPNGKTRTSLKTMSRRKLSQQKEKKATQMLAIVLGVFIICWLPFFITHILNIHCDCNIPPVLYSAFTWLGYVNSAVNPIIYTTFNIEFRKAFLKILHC
Description: PDSP Primary Binding target: DRD2 - Compounds are tested at 10 uM concentration, plate are incubated at room temperature in the dark for 90 minutes. Reaction are stopped by vacuum filtration onto 0.3% polyethyleneimine soaked filter mats using Filtermate harvester. Scintilation cocktail is then melted onto microwave-dried filters on a hot plate and the radio activity is counted in Microbia counter.

[6] = target: D(3) dopamine receptor (Homo sapiens) (UniProt P35462)
Sequence of D(3) dopamine receptor (Homo sapiens) (P35462 whole entry): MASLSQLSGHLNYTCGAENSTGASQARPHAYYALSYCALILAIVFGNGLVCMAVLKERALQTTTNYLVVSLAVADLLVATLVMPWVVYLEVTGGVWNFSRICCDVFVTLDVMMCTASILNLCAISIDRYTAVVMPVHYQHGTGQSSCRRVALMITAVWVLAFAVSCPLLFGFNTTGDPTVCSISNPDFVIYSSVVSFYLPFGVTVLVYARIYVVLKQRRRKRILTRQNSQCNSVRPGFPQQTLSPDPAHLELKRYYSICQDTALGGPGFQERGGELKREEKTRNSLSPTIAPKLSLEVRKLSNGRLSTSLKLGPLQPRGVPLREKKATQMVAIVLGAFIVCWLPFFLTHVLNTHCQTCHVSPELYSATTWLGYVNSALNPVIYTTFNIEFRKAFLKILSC
Description: PDSP Primary Binding target: DRD3 - Compounds are tested at 10 uM concentration, plate are incubated at room temperature in the dark for 90 minutes. Reaction are stopped by vacuum filtration onto 0.3% polyethyleneimine soaked filter mats using Filtermate harvester. Scintilation cocktail is then melted onto microwave-dried filters on a hot plate and the radio activity is counted in Microbia counter.

[7] = target: T3, 5-hydroxytryptamine receptor 2C (Homo sapiens) (UniProt P28335)
T3 sequence (whole entry): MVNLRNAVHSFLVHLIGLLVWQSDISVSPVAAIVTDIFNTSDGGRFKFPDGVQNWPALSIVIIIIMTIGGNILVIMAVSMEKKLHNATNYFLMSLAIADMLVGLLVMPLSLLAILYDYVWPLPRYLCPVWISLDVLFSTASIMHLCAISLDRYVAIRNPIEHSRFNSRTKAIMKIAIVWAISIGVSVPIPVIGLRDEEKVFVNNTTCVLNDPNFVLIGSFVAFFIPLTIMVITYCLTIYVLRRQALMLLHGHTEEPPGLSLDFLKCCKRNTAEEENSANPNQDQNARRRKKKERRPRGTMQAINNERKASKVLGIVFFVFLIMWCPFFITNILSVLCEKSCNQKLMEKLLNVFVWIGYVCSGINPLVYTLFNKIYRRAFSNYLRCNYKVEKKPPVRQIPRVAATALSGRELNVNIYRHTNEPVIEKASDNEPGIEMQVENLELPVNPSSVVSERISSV
Description: PDSP Primary Binding target: HTR2C - Compounds are tested at 10 uM concentration, plate are incubated at room temperature in the dark for 90 minutes. Reaction are stopped by vacuum filtration onto 0.3% polyethyleneimine soaked filter mats using Filtermate harvester. Scintilation cocktail is then melted onto microwave-dried filters on a hot plate and the radio activity is counted in Microbia counter.

[8] = target: Sigma intracellular receptor 2 (Homo sapiens) (UniProt Q5BJF2)
Sequence of Sigma intracellular receptor 2 (Homo sapiens) (Q5BJF2 whole entry): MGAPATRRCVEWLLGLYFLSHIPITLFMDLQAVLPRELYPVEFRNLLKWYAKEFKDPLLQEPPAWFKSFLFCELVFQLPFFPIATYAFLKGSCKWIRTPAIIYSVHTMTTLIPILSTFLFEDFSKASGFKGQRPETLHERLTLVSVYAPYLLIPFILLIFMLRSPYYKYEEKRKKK
Description: PDSP Primary Binding target: TMEM97 - Compounds are tested at 10 uM concentration, plate are incubated at room temperature in the dark for 90 minutes. Reaction are stopped by vacuum filtration onto 0.3% polyethyleneimine soaked filter mats using Filtermate harvester. Scintilation cocktail is then melted onto microwave-dried filters on a hot plate and the radio activity is counted in Microbia counter.

[9] = target: T4, Muscarinic acetylcholine receptor M1 (Homo sapiens) (UniProt P11229)
T4 sequence (whole entry): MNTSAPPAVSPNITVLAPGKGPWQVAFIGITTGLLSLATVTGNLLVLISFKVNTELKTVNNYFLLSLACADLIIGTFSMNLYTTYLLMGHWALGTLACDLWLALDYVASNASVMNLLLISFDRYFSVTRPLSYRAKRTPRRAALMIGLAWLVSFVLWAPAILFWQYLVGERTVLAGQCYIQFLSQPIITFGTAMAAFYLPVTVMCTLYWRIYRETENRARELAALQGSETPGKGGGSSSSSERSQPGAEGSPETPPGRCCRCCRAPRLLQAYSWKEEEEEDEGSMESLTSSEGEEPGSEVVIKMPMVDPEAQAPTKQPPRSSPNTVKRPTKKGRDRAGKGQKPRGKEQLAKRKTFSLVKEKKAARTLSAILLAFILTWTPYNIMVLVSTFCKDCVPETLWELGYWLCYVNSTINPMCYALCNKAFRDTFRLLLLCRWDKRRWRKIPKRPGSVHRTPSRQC
Description: PDSP Primary Binding target: CHRM1 - Compounds are tested at 10 uM concentration, plate are incubated at room temperature in the dark for 90 minutes. Reaction are stopped by vacuum filtration onto 0.3% polyethyleneimine soaked filter mats using Filtermate harvester. Scintilation cocktail is then melted onto microwave-dried filters on a hot plate and the radio activity is counted in Microbia counter.

[10] = target: Histamine H3 receptor (Homo sapiens) (UniProt Q9Y5N1)
Sequence of Histamine H3 receptor (Homo sapiens) (Q9Y5N1 whole entry): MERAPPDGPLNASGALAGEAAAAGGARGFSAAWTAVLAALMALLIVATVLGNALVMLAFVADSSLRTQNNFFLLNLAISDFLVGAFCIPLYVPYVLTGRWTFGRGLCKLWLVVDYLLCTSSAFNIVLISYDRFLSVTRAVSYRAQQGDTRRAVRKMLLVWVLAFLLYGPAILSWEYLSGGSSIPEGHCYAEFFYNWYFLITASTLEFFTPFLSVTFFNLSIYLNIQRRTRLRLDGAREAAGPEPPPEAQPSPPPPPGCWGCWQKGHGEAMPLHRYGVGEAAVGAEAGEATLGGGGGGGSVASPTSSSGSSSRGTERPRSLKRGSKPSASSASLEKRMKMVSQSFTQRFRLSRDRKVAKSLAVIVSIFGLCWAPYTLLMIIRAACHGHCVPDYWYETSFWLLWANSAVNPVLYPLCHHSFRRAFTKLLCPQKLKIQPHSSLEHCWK
Description: PDSP Primary Binding target: HRH3 - Compounds are tested at 10 uM concentration, plate are incubated at room temperature in the dark for 90 minutes. Reaction are stopped by vacuum filtration onto 0.3% polyethyleneimine soaked filter mats using Filtermate harvester. Scintilation cocktail is then melted onto microwave-dried filters on a hot plate and the radio activity is counted in Microbia counter.

[11] = target: 5-hydroxytryptamine receptor 1E (Homo sapiens) (UniProt P28566)
Sequence of 5-hydroxytryptamine receptor 1E (Homo sapiens) (P28566 whole entry): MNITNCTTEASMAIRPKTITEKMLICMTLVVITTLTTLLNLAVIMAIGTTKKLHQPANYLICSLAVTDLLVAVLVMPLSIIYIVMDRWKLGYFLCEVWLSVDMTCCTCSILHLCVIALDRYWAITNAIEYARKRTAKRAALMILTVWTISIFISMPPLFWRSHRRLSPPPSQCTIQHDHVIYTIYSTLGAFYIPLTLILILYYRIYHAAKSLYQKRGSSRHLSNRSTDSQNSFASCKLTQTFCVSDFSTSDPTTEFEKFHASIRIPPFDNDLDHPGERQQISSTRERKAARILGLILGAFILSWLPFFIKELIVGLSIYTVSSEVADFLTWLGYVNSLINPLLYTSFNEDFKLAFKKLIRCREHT
Description: PDSP Primary Binding target: HTR1E - Compounds are tested at 10 uM concentration, plate are incubated at room temperature in the dark for 90 minutes. Reaction are stopped by vacuum filtration onto 0.3% polyethyleneimine soaked filter mats using Filtermate harvester. Scintilation cocktail is then melted onto microwave-dried filters on a hot plate and the radio activity is counted in Microbia counter.

| SMILES | inhibition [1] [%] | inhibition [2] [%] | inhibition [3] [%] | inhibition [4] [%] | inhibition [5] [%] | inhibition [6] [%] | inhibition [7] [%] | inhibition [8] [%] | inhibition [9] [%] | inhibition [10] [%] | inhibition [11] [%] |
| --- | --- | --- | --- | --- | --- | --- | --- | --- | --- | --- | --- |
| Nc1nc(NCCc2ccc(O)cc2)nc2nc(-c3ccco3)nn12 | -6.79 | 8.13 | -6.51 | -2.49 | 40 | 19.9 | 8.15 | 90.6 | – | – | – |
| CN1C(=O)[C@@H](NC(=O)c2cc3ccccc3[nH]2)N=C(c2ccccc2)c2ccccc21 | 2.69 | -0.46 | – | 7.2 | 4.63 | 26.4 | 16.1 | 8.74 | 5.19 | 5.34 | -6.92 |
| OC1(c2ccc(Cl)cc2)CCN(Cc2c[nH]c3ccccc23)CC1 | 66.1 | 21.4 | -9.56 | 70.3 | 90.2 | 88.8 | 18.8 | 97.8 | – | – | – |
| O=C(c1cc2c(cc1F)OC(c1ccc(F)cc1)(c1ccc(Cl)cc1Cl)O2)N1CCOCC1 (stereo not drawn) | 14.6 | 3.46 | -9.02 | 48 | 5.49 | 27.4 | 73.4 | 72.4 | – | 21 | 19.9 |
| CN1CC(=O)N=C1NC(=O)Nc1cccc(Cl)c1 | 7.79 | -0.49 | 1.42 | 14.5 | -2.54 | -3.16 | 5.25 | 0.02 | – | -4.69 | 7.82 |
| COc1cc2c(CCNC(C)=O)c[nH]c2cc1Cl | 1.85 | 6.2 | – | 5.8 | -7.31 | – | 18.8 | -5.25 | -4.88 | – | 16.3 |
| N=C(N)SCCc1c[nH]cn1 | -6.16 | 8.64 | -9.79 | – | -5.28 | -0.38 | -2.06 | 13.8 | – | 98.6 | 26.2 |
| CN(C)C(=O)C(CCN1CCC(O)(c2ccc(Cl)cc2)CC1)(c1ccccc1)c1ccccc1 | 42.9 | 38 | – | 2.24 | 16.2 | 42.1 | 0.09 | 95.5 | – | 10.4 | 18.4 |
| Cc1cccc([C@H](C)c2c[nH]cn2)c1C | 63 | 42.8 | – | -3.69 | 14.4 | 21.5 | 14.5 | 37.8 | – | 2.75 | -0.76 |
| CCCn1c(=O)c2[nH]c(-c3cnn(Cc4cccc(C(F)(F)F)c4)c3)nc2n(CC)c1=O | -4.72 | – | 3.75 | 5.66 | 32.5 | – | – | 18 | -6.12 | 3.01 | -4 |
| CC(C)(C)NC[C@H](O)COc1nsnc1N1CCOCC1 | 2.77 | 8.6 | – | – | 6.14 | -0.36 | -1.62 | 10.5 | – | 10.1 | 7.32 |
| Cc1cccc(NC(=O)N[C@@H]2N=C(c3ccccc3)c3ccccc3N(C)C2=O)c1 | -7.27 | – | – | – | 14.2 | 0.6 | -0.72 | 15.4 | – | -5.59 | 18.6 |
| CC(C)NCC(O)COc1cccc2ccccc12 (stereo not drawn) | 14.6 | 12.7 | – | 4.93 | 17.7 | 23.3 | 68 | 90 | – | 5.07 | 3.24 |
